Reference: PMC9302014, “PEGylation improves the therapeutic potential of dimerized translationally controlled tumor protein blocking peptide in ovalbumin-induced mouse model of airway inflammation” (Drug Delivery, 2022)

System: OVA-induced allergic airway inflammation
Test: Mouse model of OVA-induced allergic airway inflammation
Assay type: in vivo
Conditions: single 1 mg/kg intraperitoneal on day 32, n = 10-12
Description: Sixty female BALB/c mice, 6–7 weeks of age, were randomly divided into five groups (12 mice per group) and intraperitoneally sensitized on days 1 and 14 with 50 μg OVA emulsified in 2 mg aluminum hydroxide in a total volume of 200 μl. The control group of naïve mice received the same volume of PBS for the duration of the experiment. Two weeks after the second sensitization, the animals were challenged with 200 μg of OVA through intranasal administration under light anesthesia on days 28, 30, 32, and 34. […]. On day 35, the mice were sacrificed and BALF, lung tissue, and serum were collected for further analysis.
Mice were anesthetized, and the trachea was excised, and cannulated with a polyethylene tube. The lungs were lavaged with 0.8 ml of PBS four times, and 0.6 ml of BALF was obtained. The collected lavage fluid was cooled on ice and centrifuged at 1,000 rpm for 10 min at 4 °C. The supernatant was used for ELISA assays. The pellets were resuspended in 0.1 ml PBS, and the total inflammatory cell numbers were quantified using a Hemavet (Drew Scientific Inc., Oxford, CT).
After lavage, the right lung lobe was isolated and stored at −80 °C until required. The lung tissue was homogenized in 50 mM Tris-HCl buffer (pH 7.4) containing 150 mM NaCl, 1 mM EDTA, 0.25% deoxycholate, and a protease inhibitor (Sigma) using a tissuelyser II (Qiagen). The lung homogenates were centrifuged at 10,000 × g for 10 min, and the supernatants were collected and used for ELISA assay.
The left lung lobe was fixed in 4% formaldehyde, embedded in paraffin, and sectioned at a thickness of 4 μm. The sections were stained with hematoxylin and eosin (H&E) to detect infiltration of inflammatory cells and with periodic acid-Schiff (PAS) staining for the analysis of goblet cells hyperplasia/mucus production. The H&E stained sections were scored for the presence of inflammatory cells using the following scale: (0) = absent, (1) = rare, (2) = mild, (3) = moderate, (4) = severe. Scoring was performed by 6 observers in a blinded manner. Also, the area of H&E stained cells was quantified in the selected field, and the area of PAS-positive cells per bronchiole was expressed as the % of the total epithelial area using ImageJ software (National Institute of Health, Bethesda, MD).
Statistical analysis was performed using GRAPHPAD^TM PRISM version 8.0 for Windows (GraphPad Software, San Diego, CA). Statistical significance was determined using Student’s two-tailed unpaired t-test for comparisons between two groups. For more than 3 groups, a one-way analysis of variance (ANOVA) was followed by Tukey’s test. Error bars were expressed as the mean ± the standard error of the mean (SEM) of 10 to 12 mice per group. Significant differences between means were defined as p < 0.05.

Compound: C[C@@H]1C[C@H]2[C@@H]3CCC4=CC(=O)C=C[C@]4(C)[C@@]3(F)[C@@H](O)C[C@]2(C)[C@@]1(O)C(=O)CO [Dex, dexamethasone]
- levels of IL-4, IL-5, and IL-13 in lung homogenates increased by OVA challenge (ELISA): suppressed
- number of lymphocytes in BALF compared to the OVA group: did not significantly suppress
- number of monocytes in BALF compared to the OVA group: did not significantly suppress
- number of total cells (total leukocytes) in BALF compared to the OVA-challenged group: no difference
